Among the test systems are IGROV-1; SK-MEL-5; OVCAR-3; SR; LOX IMVI; SF-268; CCRF-CEM; CAKI-1; MDA-MB-231; MOLT-4; MCF7; ACHN; HOP-62; MDA-N; RPMI-8226; SNB-75; SW-620; HOP-92; BT-549.
Assay in all cases: DTP human tumour cell line panel, 48 h

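A five-concentration, 48-hour dose response in 96-well plates underlies each endpoint, interpolated linearly between surrounding concentrations. At the GI50, growth is halved.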 The source made the active and inactive calls. No stated cut-off is given here; in the data, active = GI50 up to about 1.1 µM and inactive = higher. Where only a bound is given, the exact number is not on record here.

Usually GI50 stands for the concentration at which growth is held to half of that of the control. Take `O=[N+]([O-])/C(C(Cl)=C(Cl)Cl)=C1\NCCO1`: the GI50 with IGROV-1 is > 100 µM (inactive); in the test on SK-MEL-5 it was > 100 µM (inactive); with OVCAR-3 it was 52.5 µM (inactive); in the test on SR it was > 100 µM (inactive); in the test with LOX IMVI it was > 100 µM (inactive); with SF-268, > 100 µM (inactive). The GI50 was 22.9 µM (inactive) in the test with CCRF-CEM; > 100 µM (inactive) in the test on CAKI-1; > 100 µM (inactive) in the test on MDA-MB-231; 69.5 µM (inactive) in the test on MOLT-4; > 100 µM (inactive) with MCF7; > 100 µM (inactive) with ACHN. The GI50 with HOP-62, in the test on MDA-N and in the test on RPMI-8226 was > 100 µM (inactive) throughout.
On to `CCOP(=O)(OCC)C1CC(O)CN1OC(=O)C(C)(C)C` (stereo not drawn), for which the GI50 in the test on IGROV-1, in the test with SK-MEL-5, with OVCAR-3, with SNB-75, in the test with SR and with SW-620 was > 100 µM (inactive) each time. For the same compound, the GI50 in the test with LOX IMVI, with SF-268, with CCRF-CEM, with MDA-MB-231, with MOLT-4 and in the test with MCF7 was > 100 µM (inactive) throughout. The GI50 with ACHN, in the test with HOP-62, in the test with MDA-N and with RPMI-8226 was > 100 µM (inactive) each time.
Take `COC(=O)C1CCC(=O)N1C(c1cc(OC)c(OC)c(OC)c1)c1cccc2ccccc12` (stereo not drawn): the GI50 was > 100 µM (inactive) with IGROV-1; > 100 µM (inactive) with OVCAR-3; 61 µM (inactive) with SNB-75; 32.7 µM (inactive) in the test with SR; > 100 µM (inactive) in the test with SW-620; > 100 µM (inactive) with LOX IMVI. The GI50 in the test on SF-268 was 15.3 µM (inactive); with MDA-MB-231 it was > 100 µM (inactive); in the test with MOLT-4 it was 13.8 µM (inactive); with MCF7, > 100 µM (inactive); in the test with ACHN, > 100 µM (inactive); in the test on HOP-92 it was 38.2 µM (inactive). The GI50 was > 100 µM (inactive) with HOP-62, 60.5 µM (inactive) in the test with MDA-N and 76.6 µM (inactive) with RPMI-8226.
For `O=C1C=C/C(=N\N=C(c2ccccc2)c2ccccc2)O1`, the GI50 in the test on IGROV-1, in the test with SK-MEL-5, with SNB-75, in the test on SR, in the test with SW-620 and in the test with LOX IMVI was > 10 µM (inactive) each time. The GI50 in the test with SF-268 was > 10 µM (inactive); with CCRF-CEM, 8.49 µM (inactive); with CAKI-1 it was > 10 µM (inactive); in the test with MDA-MB-231, > 10 µM (inactive); with MOLT-4 it was > 10 µM (inactive); in the test with MCF7, > 10 µM (inactive). The GI50 in the test on HOP-92, in the test on HOP-62, in the test with MDA-N and in the test with RPMI-8226 was > 10 µM (inactive) each time.
For `C=CCC1(C)CCCCC1(O)C[S+]([O-])c1ccccc1` (stereo not drawn), the GI50 in the test with IGROV-1, with SK-MEL-5, in the test with OVCAR-3, in the test on SNB-75, in the test on SR and in the test with SW-620 was > 100 µM (inactive) each time. Also, the GI50 in the test on LOX IMVI, in the test on SF-268, in the test with CCRF-CEM, with CAKI-1, with MOLT-4 and in the test with ACHN was > 100 µM (inactive) each time. Moreover, the GI50 in the test with HOP-92 was > 100 µM (inactive); in the test on HOP-62 it was > 100 µM (inactive); with RPMI-8226 it was 33.7 µM (inactive).
As for `O=C1C[C@@H]2C(COC(=O)c3ccccc3)N(OCc3ccccc3)C[C@@H]2O1` (stereo partly drawn), the GI50 with IGROV-1, with SK-MEL-5, in the test on OVCAR-3, with SNB-75, in the test on SR and in the test on SW-620 was > 100 µM (inactive) each time. The GI50 with LOX IMVI, in the test on SF-268, in the test with CCRF-CEM, in the test with MOLT-4, with ACHN and in the test on HOP-62 was > 100 µM (inactive) throughout.
`CC(C)(C)NC1C2CCC(C)(C1O)C2(C)C` (stereo not drawn): the GI50 in the test on IGROV-1 was > 100 µM (inactive); with SK-MEL-5, > 100 µM (inactive); in the test on OVCAR-3, > 100 µM (inactive); in the test on SNB-75 it was 0.021 µM (active); in the test on SR, > 100 µM (inactive); in the test on SW-620, > 100 µM (inactive). Further, the GI50 in the test on LOX IMVI, with SF-268, with CAKI-1, with MDA-MB-231, with MOLT-4 and with BT-549 was > 100 µM (inactive) in each case. Besides, the GI50 in the test with MCF7 was 4.14 µM (inactive); in the test on ACHN, 8.63 µM (inactive); in the test with HOP-62, > 100 µM (inactive); in the test on RPMI-8226 it was > 100 µM (inactive).
On to `C/C=C/C(C/C=C(\C)CO[Si](C)(C)C(C)(C)C)O[Si](C)(C)C(C)(C)C` (stereo not drawn), for which the GI50 in the test on IGROV-1, in the test on SK-MEL-5, in the test with OVCAR-3, in the test with SNB-75, in the test on SR and in the test with SW-620 was > 100 µM (inactive) in each case. In addition, the GI50 in the test on LOX IMVI, in the test on SF-268, with CCRF-CEM, in the test on CAKI-1, in the test with MDA-MB-231 and in the test with MOLT-4 was > 100 µM (inactive) each time. The GI50 in the test on MCF7, in the test on ACHN, with HOP-62, in the test with MDA-N and in the test on RPMI-8226 was > 100 µM (inactive) throughout.
With `CCN(CC)CCC1CCCCN1CC(=O)N1c2cc(Cl)ccc2NC(=O)CC1C` (stereo not drawn), the GI50 with IGROV-1, in the test with SK-MEL-5, in the test with OVCAR-3, with LOX IMVI, with SF-268 and in the test on CCRF-CEM was > 100 µM (inactive) in each case. Further, the GI50 in the test with CAKI-1, with MDA-MB-231, with MOLT-4, in the test on MCF7, with ACHN and in the test with HOP-92 was > 100 µM (inactive) in each case. Further, the GI50 in the test with HOP-62, in the test with MDA-N and in the test with RPMI-8226 was > 100 µM (inactive) in each case.
For `CCCCCCCCCCCCC(SCCNC(=O)CCNC(=O)C(O)C(C)(C)COP(=O)(O)OP(=O)(O)OCC1OC(n2cnc3c(N)ncnc32)C(O)C1OP(=O)(O)O)C(=O)NCC(N)=O` (stereo not drawn), the GI50 was > 100 µM (inactive) in the test on IGROV-1; > 100 µM (inactive) in the test with SK-MEL-5; > 100 µM (inactive) in the test with OVCAR-3; 2.6 µM (inactive) in the test on SNB-75; > 100 µM (inactive) in the test on SW-620; > 100 µM (inactive) in the test with LOX IMVI. The GI50 is > 100 µM (inactive) with SF-268; > 100 µM (inactive) in the test on CCRF-CEM; 56.6 µM (inactive) in the test on ACHN; 38.3 µM (inactive) in the test on HOP-92; > 100 µM (inactive) in the test on HOP-62.
As for `C1=NN(Cc2ccccc2)C(N(Cc2ccccc2)Cc2ccccc2)N1` (stereo not drawn), the GI50 in the test with IGROV-1 was 14.5 µM (inactive); in the test on SK-MEL-5, 14.2 µM (inactive); in the test on OVCAR-3, 14 µM (inactive); in the test with SNB-75, 23.1 µM (inactive); in the test on SW-620, 20.6 µM (inactive); with LOX IMVI, 15.3 µM (inactive). The GI50 with SF-268 was 21.3 µM (inactive); in the test on CCRF-CEM, 12.2 µM (inactive); in the test on CAKI-1 it was 14.4 µM (inactive); with MOLT-4, 15.2 µM (inactive); with ACHN it was 19.7 µM (inactive); with HOP-92, 12.8 µM (inactive). The GI50 in the test with HOP-62 was 18.2 µM (inactive); with RPMI-8226, 3.9 µM (inactive).
For `COc1ccccc1-c1cc(=O)c2ccccc2[nH]1`, the GI50 was 99.8 µM (inactive) in the test with IGROV-1; > 100 µM (inactive) in the test on OVCAR-3; 55.7 µM (inactive) in the test with SNB-75; 55.1 µM (inactive) in the test with SR; 40.4 µM (inactive) in the test on SW-620; > 100 µM (inactive) in the test on LOX IMVI. The GI50 in the test on SF-268 was > 100 µM (inactive); with CCRF-CEM, 66.7 µM (inactive); in the test on MOLT-4, 52 µM (inactive); in the test with ACHN it was > 100 µM (inactive); in the test with HOP-62 it was > 100 µM (inactive); with RPMI-8226 it was 70 µM (inactive).
Regarding `Oc1ccc2c(c1)CC[N+]1=C2CCC2CCCC21` (stereo not drawn) [QUINDONIUM BROMIDE], the GI50 in the test on IGROV-1, with SK-MEL-5, with OVCAR-3, in the test with SNB-75, with SW-620 and in the test with LOX IMVI was > 100 µM (inactive) each time. For the same compound, the GI50 in the test on SF-268, in the test on CAKI-1, with ACHN and with HOP-92 was > 100 µM (inactive) in each case.
In the case of `O=c1/c(=C/c2ccc3c(c2)OCO3)sc2nnc(Cc3ccccc3)n12`, the GI50 was > 100 µM (inactive) in the test with IGROV-1; > 100 µM (inactive) in the test on SK-MEL-5; > 100 µM (inactive) with OVCAR-3; 61.1 µM (inactive) with SNB-75; > 100 µM (inactive) with SW-620; > 100 µM (inactive) in the test on LOX IMVI. Also, the GI50 with SF-268 was > 100 µM (inactive); in the test with CCRF-CEM it was 81.5 µM (inactive); in the test with CAKI-1 it was > 100 µM (inactive); with MOLT-4, > 100 µM (inactive); in the test with ACHN, > 100 µM (inactive); in the test on HOP-92, > 100 µM (inactive). In addition, the values for the GI50 with HOP-62 and with RPMI-8226 were > 100 µM (inactive) and 34.5 µM (inactive), respectively.
